Source: ChEMBL document CHEMBL1201861, “Genomics of Drug Sensitity in Cancer screening data, Wellcome Trust Sanger Institute”

Columns and labels:
CP50-MEL-B = assay: cells; type: functional, cell-based, Homo sapiens; settings: Homo sapiens, CP50-MEL-B;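 further: growth inhibition of the human cell line, measured with a cell viability read-out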
Description: SANGER: Inhibition of human CP50-MEL-B cell growth in a cell viability assay.

D-423MG = assay: cells; type: functional, cell-based, Homo sapiens; settings: Homo sapiens, D-423MG
Description: SANGER: Inhibition of human D-423MG cell growth in a cell viability assay.

ESS-1 = assay: cells; type: functional, cell-based, Homo sapiens; settings: Homo sapiens, ESS-1;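 further: growth inhibition of human ESS-1 cells, read out by a cell viability assay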
Description: SANGER: Inhibition of human ESS-1 cell growth in a cell viability assay.

FTC-133 = assay: cells; type: functional, cell-based, Homo sapiens; settings: Homo sapiens, FTC-133
H-EMC-SS = assay: cells; type: functional, cell-based, Homo sapiens; settings: Homo sapiens, H-EMC-SS
Description: SANGER: Inhibition of human H-EMC-SS cell growth in a cell viability assay.

HCC1806 = assay: cells; type: functional, cell-based, Homo sapiens; settings: Homo sapiens, HCC1806;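 further: growth inhibition of the cancer cell line, determined with a cell viability assay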
Description: SANGER: Inhibition of human HCC1806 cell growth in a cell viability assay.

HCT-116 = assay: cells; type: functional, cell-based, Homo sapiens; settings: Homo sapiens, HCT-116
Description: SANGER: Inhibition of human HCT-116 cell growth in a cell viability assay.

HOP-92 = assay: cells; type: functional, cell-based, Homo sapiens; settings: Homo sapiens, HOP-92;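 further: cell viability readout, with IC50 reflecting inhibition of HOP-92 cell growth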
Description: SANGER: Inhibition of human HOP-92 cell growth in a cell viability assay.

HT-1376 = assay: cells; type: functional, cell-based, Homo sapiens; settings: Homo sapiens, HT-1376
Description: SANGER: Inhibition of human HT-1376 cell growth in a cell viability assay.

HT55 = assay: cells; type: functional, cell-based, Homo sapiens; settings: Homo sapiens, HT55;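 further: cell viability readout measuring growth inhibition of human HT55 cells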
Description: SANGER: Inhibition of human HT55 cell growth in a cell viability assay.

HuO9 = assay: cells; type: functional, cell-based, Homo sapiens; settings: Homo sapiens, HuO9;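 further: growth inhibition of HuO9 cells, read out with a cell viability assay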
Description: SANGER: Inhibition of human HuO9 cell growth in a cell viability assay.

JEG-3 = assay: cells; type: functional, cell-based, Homo sapiens; settings: Homo sapiens, JEG-3;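 further: growth inhibition of human JEG-3 cells, read out with a cell viability assay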
Description: SANGER: Inhibition of human JEG-3 cell growth in a cell viability assay.

KP-N-YN = assay: cells; type: functional, cell-based, Homo sapiens; settings: Homo sapiens, KP-N-YN;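 further: growth inhibition of KP-N-YN cells, read out with a cell viability assay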
Description: SANGER: Inhibition of human KP-N-YN cell growth in a cell viability assay.

KYSE-150 cell line = assay: cells; type: functional, cell-based, Homo sapiens; settings: Homo sapiens, KYSE-150;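 further: growth inhibition of human KYSE-150 cells, read out with a cell viability assay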
Description: SANGER: Inhibition of human KYSE-150 cell growth in a cell viability assay.

MG-63 = assay: cells; type: functional, cell-based, Homo sapiens; settings: Homo sapiens, MG-63;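 further: growth inhibition of human MG-63 cells, read out with a cell viability assay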
Description: SANGER: Inhibition of human MG-63 cell growth in a cell viability assay.

NB7 = assay: cells; type: functional, cell-based, Homo sapiens; settings: Homo sapiens, NB7;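 further: growth inhibition of NB7 cells, read out with a cell viability assay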
Description: SANGER: Inhibition of human NB7 cell growth in a cell viability assay.

NCI-H1993 = assay: cells; type: functional, cell-based, Homo sapiens; settings: Homo sapiens, NCI-H1993;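 further: growth inhibition of the cancer cell line, assessed with a cell viability assay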
Description: SANGER: Inhibition of human NCI-H1993 cell growth in a cell viability assay.

NCI-H2122 = assay: cells; type: functional, cell-based, Homo sapiens; settings: Homo sapiens, NCI-H2122
Description: SANGER: Inhibition of human NCI-H2122 cell growth in a cell viability assay.

PA-1 = assay: cells; type: functional, cell-based, Homo sapiens; settings: Homo sapiens, PA-1;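 further: IC50 for suppression of PA-1 cell proliferation, determined with a cell viability read-out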
Description: SANGER: Inhibition of human PA-1 cell growth in a cell viability assay.

PFSK-1 = assay: cells; type: functional, cell-based, Homo sapiens; settings: Homo sapiens, PFSK-1;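 further: cell viability assay measuring how strongly compounds suppress growth of human PFSK-1 cells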
Description: SANGER: Inhibition of human PFSK-1 cell growth in a cell viability assay.

RVH-421 = assay: cells; type: functional, cell-based, Homo sapiens; settings: Homo sapiens, RVH-421
Description: SANGER: Inhibition of human RVH-421 cell growth in a cell viability assay.

SF-295 = assay: cells; type: functional, cell-based, Homo sapiens; settings: Homo sapiens, SF-295;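 further: growth inhibition of SF-295 cells, read out with a cell viability assay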
Description: SANGER: Inhibition of human SF295 cell growth in a cell viability assay.

SK-MES-1 = assay: cells; type: functional, cell-based, Homo sapiens; settings: Homo sapiens, SK-MES-1;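 further: growth inhibition of human SK-MES-1 cells, read out with a cell viability assay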
Description: SANGER: Inhibition of human SK-MES-1 cell growth in a cell viability assay.

SNU-449 = assay: cells; type: functional, cell-based, Homo sapiens; settings: Homo sapiens, SNU-449
Description: SANGER: Inhibition of human SNU-449 cell growth in a cell viability assay.

SW1463 = assay: cells; type: functional, cell-based, Homo sapiens; settings: Homo sapiens, SW1463;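 further: growth inhibition of SW1463 cells, determined with a cell viability assay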
Description: SANGER: Inhibition of human SW1463 cell growth in a cell viability assay.

SW1710 = assay: cells; type: functional, cell-based, Homo sapiens; settings: Homo sapiens, SW1710;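 further: growth inhibition of SW1710 cells, determined with a cell viability assay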
Description: SANGER: Inhibition of human SW1710 cell growth in a cell viability assay.

SAOS-2 = assay: cells; type: functional, cell-based, Homo sapiens; settings: Homo sapiens, SAOS-2;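 further: growth inhibition of human Saos-2 cells determined by a cell viability assay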
Description: SANGER: Inhibition of human Saos-2 cell growth in a cell viability assay.

AN3-CA = assay: cells; type: functional, cell-based, Homo sapiens; settings: Homo sapiens, AN3-CA;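 further: growth inhibition of human AN3-CA cells measured by a cell viability assay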
Description: SANGER: Inhibition of human AN3-CA cell growth in a cell viability assay.

BFTC-905 = assay: cells; type: functional, cell-based, Homo sapiens; settings: Homo sapiens, BFTC-905
Description: SANGER: Inhibition of human BFTC-905 cell growth in a cell viability assay.

BHT-101 = assay: cells; type: functional, cell-based, Homo sapiens; settings: Homo sapiens, BHT-101
Description: SANGER: Inhibition of human BHT-101 cell growth in a cell viability assay.

CAL-51 = assay: cells; type: functional, cell-based, Homo sapiens; settings: Homo sapiens, CAL-51;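 further: human CAL-51 cell line, growth inhibition read out via a cell viability assay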
Description: SANGER: Inhibition of human CAL-51 cell growth in a cell viability assay.

CAL-54 = assay: cells; type: functional, cell-based, Homo sapiens; settings: Homo sapiens, CAL-54;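 further: growth inhibition of CAL-54 cells, read out by a viability measurement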
Description: SANGER: Inhibition of human CAL-54 cell growth in a cell viability assay.

UMC-11 = assay: cells; type: functional, cell-based, Homo sapiens; settings: Homo sapiens, UMC-11;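 further: growth inhibition of UMC-11 cells, read out with a cell viability assay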
Description: SANGER: Inhibition of human UMC-11 cell growth in a cell viability assay.

YKG-1 = assay: cells; type: functional, cell-based, Homo sapiens; settings: Homo sapiens, YKG-1
Description: SANGER: Inhibition of human YKG-1 cell growth in a cell viability assay.

CPC-N = assay: cells; type: functional, cell-based, Homo sapiens; settings: Homo sapiens, CPC-N;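 further: growth inhibition of CPC-N cells, with a cell viability assay as the readout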
Description: SANGER: Inhibition of human CPC-N cell growth in a cell viability assay.

Daudi = assay: cells; type: functional, cell-based, Homo sapiens; settings: Homo sapiens, Daudi
Description: SANGER: Inhibition of human Daudi cell growth in a cell viability assay.

EB2 = assay: cells; type: functional, cell-based, Homo sapiens; settings: Homo sapiens, EB2;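 further: growth inhibition of EB2 cells, read out with a cell viability assay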
Description: SANGER: Inhibition of human EB2 cell growth in a cell viability assay.

ECC4 = assay: cells; type: functional, cell-based, Homo sapiens; settings: Homo sapiens, ECC4;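 further: growth inhibition of ECC4 cells, read out with a cell viability assay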
Description: SANGER: Inhibition of human ECC4 cell growth in a cell viability assay.

EHEB = assay: cells; type: functional, cell-based, Homo sapiens; settings: Homo sapiens, EHEB
Description: SANGER: Inhibition of human EHEB cell growth in a cell viability assay.

HCT-15 = assay: cells; type: functional, cell-based, Homo sapiens; settings: Homo sapiens, HCT-15;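 further: cell viability readout, IC50 reflecting suppression of HCT-15 cell growth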
Description: SANGER: Inhibition of human HCT-15 cell growth in a cell viability assay.

IMR-5 = assay: cells; type: functional, cell-based, Homo sapiens; settings: Homo sapiens, IMR-5;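 further: growth inhibition of human IMR-5 cells, read out with a cell viability assay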
Description: SANGER: Inhibition of human IMR-5 cell growth in a cell viability assay.

NCI-H1694 = assay: cells; type: functional, cell-based, Homo sapiens; settings: Homo sapiens, NCI-H1694;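 further: cell viability assay measuring inhibition of growth in human NCI-H1694 cells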
Description: SANGER: Inhibition of human NCI-H1694 cell growth in a cell viability assay.

NCI-H1963 = assay: cells; type: functional, cell-based, Homo sapiens; settings: Homo sapiens, NCI-H1963;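 further: cell growth inhibition of the human line, determined with a cell viability assay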
Description: SANGER: Inhibition of human NCI-H1963 cell growth in a cell viability assay.

NCI-H2227 = assay: cells; type: functional, cell-based, Homo sapiens; settings: Homo sapiens, NCI-H2227
Description: SANGER: Inhibition of human NCI-H2227 cell growth in a cell viability assay.

P31-FUJ = assay: cells; type: functional, cell-based, Homo sapiens; settings: Homo sapiens, P31-FUJ;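 further: growth inhibition of P31-FUJ cells, read out with a viability assay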
Description: SANGER: Inhibition of human P31-FUJ cell growth in a cell viability assay.

RPMI 8402 = assay: SANGER: Inhibition of human RPMI-8402 cell growth in a cell viability assay.; type: functional, cell-based; settings: Homo sapiens, RPMI 8402; read-out: IC50
SUP-T1 = assay: cells; type: functional, cell-based, Homo sapiens; settings: Homo sapiens, SUP-T1;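 further: growth inhibition of human SUP-T1 cells, read out as cell viability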
Description: SANGER: Inhibition of human SUP-T1 cell growth in a cell viability assay.

TE-441-T = assay: cells; type: functional, cell-based, Homo sapiens; settings: Homo sapiens, TE-441-T
Description: SANGER: Inhibition of human TE-441-T cell growth in a cell viability assay.

YT = assay: cells; type: functional, cell-based, Homo sapiens; settings: Homo sapiens, YT
Description: SANGER: Inhibition of human YT cell growth in a cell viability assay.

Measured: IC50

Cn1cnc2c(F)c(Nc3ccc(Br)cc3Cl)c(C(=O)NOCCO)cc21 [SELUMETINIB]
0.291 µM: H-EMC-SS
0.279 µM: RVH-421
1.49 µM: CAL-54
1.06 µM: HCT-116
0.128 µM: CP50-MEL-B
2.42 µM: BFTC-905
0.107 µM: BHT-101
> 4 µM: D-423MG | ESS-1 | FTC-133 | HCC1806 | HOP-92 | HT-1376 | HT55 | HuO9 | JEG-3 | KP-N-YN | KYSE-150 cell line | MG-63 | NB7 | NCI-H1993 | NCI-H2122 | PA-1 | PFSK-1 | SF-295 | SK-MES-1 | SNU-449 | SW1463 | SW1710 | SAOS-2 | AN3-CA | CAL-51 | UMC-11 | YKG-1

N#Cc1c(O)c2c(-c3ccc(-c4ccccc4O)cc3)csc2[nH]c1=O
0.142 µM: EB2
0.0467 µM: YT
0.442 µM: RPMI 8402
0.977 µM: NCI-H1694
0.0633 µM: EHEB
0.265 µM: SUP-T1
0.0498 µM: Daudi
> 1.02 µM: CP50-MEL-B | CPC-N | ESS-1 | FTC-133 | HCC1806 | HCT-116 | HCT-15 | HOP-92 | HT-1376 | HT55 | HuO9 | IMR-5 | JEG-3 | KYSE-150 cell line | MG-63 | NCI-H1963 | NCI-H1993 | NCI-H2122 | NCI-H2227 | P31-FUJ | PA-1 | PFSK-1 | RVH-421 | SF-295 | SK-MES-1 | SNU-449 | SW1463 | SW1710 | SAOS-2 | AN3-CA | BFTC-905 | BHT-101 | CAL-51 | CAL-54 | TE-441-T | UMC-11 | YKG-1
0.509 µM: ECC4

CCN(CC)CCCCNc1ncc2cc(-c3cc(OC)cc(OC)c3)c(NC(=O)NC(C)(C)C)nc2n1 [PD-173074]
0.347 µM: H-EMC-SS
0.401 µM: AN3-CA
> 2 µM: CP50-MEL-B | D-423MG | ESS-1 | FTC-133 | HCC1806 | HCT-116 | HOP-92 | HT-1376 | HT55 | HuO9 | JEG-3 | KP-N-YN | KYSE-150 cell line | MG-63 | NB7 | NCI-H1993 | NCI-H2122 | PA-1 | PFSK-1 | RVH-421 | SF-295 | SK-MES-1 | SNU-449 | SW1463 | SW1710 | SAOS-2 | BFTC-905 | BHT-101 | CAL-51 | CAL-54 | UMC-11 | YKG-1

CN(C)C(=N)NC(=N)N [METFORMIN]
10400 µM: HT-1376
8890 µM: HCT-15
3360 µM: CAL-54
6170 µM: SF-295
3260 µM: D-423MG
14000 µM: MG-63
14200 µM: PA-1
> 20000 µM: CP50-MEL-B | ESS-1 | FTC-133 | H-EMC-SS | HCC1806 | HCT-116 | HT55 | NCI-H2122 | PFSK-1 | SK-MES-1 | SNU-449 | SW1463 | SW1710 | AN3-CA | UMC-11
6420 µM: BHT-101
11700 µM: BFTC-905
